# Source: patent US10894777B2, “TG2 inhibitor piperazine compounds and uses thereof” (UNIVERSITY OF OTTAWA, priority 2016, dated 2021)
# Experiments:
# SCC-13 cells = test: EMT marker immunoblot, SCC-13 cells; assay type: cell-based, human; settings: 20 μM, 48 h
# Procedure: In (A), SCC-13 cells (500,000) were plated in monolayer culture in spheroid medium in 100 mm dishes. Fresh spheroid medium containing 0 or 20 μM NC9 was added at time zero and again at 24 h. After 48 h lysates were collected for electrophoresis and immunoblot. In (B), SCC-13 cells were pretreated with 0 or 20 μM NC9 for 2 h and then harvested and plated (25,000 cells) in the upper chamber in 1 mL of medium, above a matrigel-coated membrane, in a Millicell chamber. After 30 h. the inside of membrane was harvested and the nuclei of migrated cells on the bottom of the membrane were counted using an inverted fluorescent microscope. The values are mean±SEM, n=3 (p, 0.05). In (C), SCC-13 (2 million) cells were plated in spheroid medium in 100 mm dishes and grown as monolayer cultures. Confluent monolayers were then scratched with a 10-μL pipette tip and wound width was monitored for 0-18 h.
# Immunoblot. […] Blots were rinsed and then incubated with secondary antibody (diluted 1:5000) for 2 h. Secondary antibody binding was visualized using ECL Prime chemiluminescence detection technology (Amersham).
# [1] = test system: ECS cells (derived from SCC-13) tumors; test: Tumor xenograft growth assay, SCC-13-derived ECS cells in NSG mice; assay type: in vivo
# Procedure: In (A), SCC13-Control-shRNA and SCC13-TG2-shRNA2 cells were double electroporated with empty vector (EV) or YAP(S127A)-encoding vector and at 48 h post-electroporation lysates were collected for immunoblot. In (B), (C), and (D), the indicated cell lines were electroporated with EV or YAP(S127A)-encoding vector and then plated for spheroid formation, invasion and migration assay. In (E) and (F), ECS cells (100,000 cells derived from SCC-13) were injected into each front flank in NSG mice. At 1 d post injection, the mice were treated with 0 or 20 mg NC9 per kg body weight delivered in 200 μl by gavage three times per week. Images represent appearance and size of typical control and NC9 treated tumors harvested on week four. In (G), tumors were harvested at 4 wk and extracts were prepared for assay of indicated proteins. Blots from two representative tumors are shown. In (H), a proposed TG2 signaling scheme is shown. TG2 interacts with α6/β4 integrin to enhance integrin (FAK/Src) signaling which increases PI3K/PDK1 activity and PDK suppresses activity in the Hippo signaling cascade (LATS1). This leads to reduced LATS1 phosphorylation of YAP1 which then interacts with and stabilizes ΔNp63α. […]
# Tumor xenograft growth assay. […] Tumor growth was monitored by measuring tumor diameter and calculating tumor volume=4/3π×(diameter/2)^3 (Streit, M. et al., Am. J. Pathol. 155:441-52, 1999). […]
# TG2 [2] = target: T1, TG2 (Homo sapiens, UniProt P21980); test: In vitro GTP binding assay after inhibition of hTG2 (BODIPY GTP-γ-S); settings: inhibitor 2×KI, 30 min; 3 μM GTP-γ-S FL BODIPY
# T1 sequence (P21980 1-687): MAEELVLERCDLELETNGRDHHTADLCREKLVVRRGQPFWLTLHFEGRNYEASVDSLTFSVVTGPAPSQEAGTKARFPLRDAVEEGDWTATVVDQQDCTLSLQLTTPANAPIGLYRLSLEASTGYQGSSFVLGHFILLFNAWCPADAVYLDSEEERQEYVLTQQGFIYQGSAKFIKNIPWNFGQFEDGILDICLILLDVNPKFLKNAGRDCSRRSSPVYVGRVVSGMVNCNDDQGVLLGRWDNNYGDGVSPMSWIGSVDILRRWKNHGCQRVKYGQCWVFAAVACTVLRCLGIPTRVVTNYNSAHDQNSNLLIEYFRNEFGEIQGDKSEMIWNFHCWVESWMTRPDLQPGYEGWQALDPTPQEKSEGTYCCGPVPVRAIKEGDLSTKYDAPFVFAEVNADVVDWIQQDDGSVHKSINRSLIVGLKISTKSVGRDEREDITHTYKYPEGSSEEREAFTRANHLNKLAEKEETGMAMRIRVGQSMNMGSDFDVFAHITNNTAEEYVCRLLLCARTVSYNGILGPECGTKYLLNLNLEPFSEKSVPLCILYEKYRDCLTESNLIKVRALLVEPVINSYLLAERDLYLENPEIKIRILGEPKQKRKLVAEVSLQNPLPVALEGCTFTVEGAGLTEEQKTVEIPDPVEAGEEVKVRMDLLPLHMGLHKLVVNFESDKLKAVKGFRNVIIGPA
# Procedure: In vitro GTP binding assay. GTP binding was measured using a method similar to that reported previously (McEwen, D. P. et al., Anal. Biochem. (2001), 291 (1): 109-117). […] The buffer was then exchanged to 100 mM MOPS (pH=7.0), 1 mM EGTA and 5 mM MgCl2 to remove calcium using a 10-kDa molecular weight cut off membrane. The fluorescent GTP analog was then added to give a final concentration of 3.0 μM and fluorescence was then measured on a microplate reader after 10 minutes of incubation (Ex/Em: 490/520 nm).
# TG2 [3] = target: T1, TG2; test: Inhibition irreversibility (filtration, dilution, activity assay); assay type: biochemical; settings: after filtration over 10-kDa membrane and dilution
# Source text: Inhibition irreversibility.
compound,measurement,setting,value
C=CC(=O)NCCCC[C@H](NC(=O)OCc1ccccc1)C(=O)NCCOCCOCCNS(=O)(=O)c1cccc2c(N(C)C)cccc12 [NC9],E-cadherin level,SCC-13 cells,elevated
same,EMT transcription factor and EMT marker levels,SCC-13 cells,"reduced EMT transcription factor (Twist, Snail, Slug) and EMT marker (vimentin, fibronectin, N-cadherin, HIF-1α) levels"
same,tumor formation,"[1]; 20 mg/kg body weight, three times per week, 4 wk",markedly suppressed tumor formation
same,integrin and Hippo signaling in tumor extracts,"[1]; 20 mg/kg, tumors harvested at 4 wk","reduced integrin-04 level, and FAK and Src activity, and increased LATS1-P and YAP-P"
"C=CC(=O)NCCCC[C@H](NC(=O)OCc1ccccc1)C(=O)N1CCN(S(=O)(=O)c2cccc3c(N(C)C)cccc23)CC1 [VA4, (S)-benzyl(6-acrylamido-1-(4-((5-(dimethylamino)naphthalen-1-yl)sulfonyl)piperazin-1-yl)-1-oxohexan-2-yl)carbamate]",GTP binding of hTG2 after incubation with inhibitor,TG2 [2],abolish GTP binding nearly completely
same,recovered activity of inhibited hTG2,TG2 [3],no recovered activity
